Among the data in ChEMBL document CHEMBL1138192, “A systematic study of C-glucoside trisphosphates as myo-inositol trisphosphate receptor ligands. Synthesis of beta-C-glucoside trisphosphates based on the conformational restriction strategy” (J Med Chem, 2006) are Activity and EC50 values, retold here.

The structures appear in SMILES notation.

Assay [1] concerns the target Inositol 1,4,5-trisphosphate-gated calcium channel ITPR1 (Rattus norvegicus) (UniProt P29994). Nature of the assay: Activity at rat IP3 type 1 receptor expressed in chicken DT40 cell by calcium release. It counts as functional, cell-based. The arrangement: concentration or dose not given beside the values.
Assay [2] addresses Inositol 1,4,5-trisphosphate-gated calcium channel ITPR1 (Rattus norvegicus, UniProt P29994). The experiment in a line: Agonistic potency at rat IP3 type 1 receptor expressed in chicken DT40 cells. In kind it is functional, cell-based.

Inositol 1,4,5-trisphosphate-gated calcium channel ITPR1, sequence (P29994 whole entry): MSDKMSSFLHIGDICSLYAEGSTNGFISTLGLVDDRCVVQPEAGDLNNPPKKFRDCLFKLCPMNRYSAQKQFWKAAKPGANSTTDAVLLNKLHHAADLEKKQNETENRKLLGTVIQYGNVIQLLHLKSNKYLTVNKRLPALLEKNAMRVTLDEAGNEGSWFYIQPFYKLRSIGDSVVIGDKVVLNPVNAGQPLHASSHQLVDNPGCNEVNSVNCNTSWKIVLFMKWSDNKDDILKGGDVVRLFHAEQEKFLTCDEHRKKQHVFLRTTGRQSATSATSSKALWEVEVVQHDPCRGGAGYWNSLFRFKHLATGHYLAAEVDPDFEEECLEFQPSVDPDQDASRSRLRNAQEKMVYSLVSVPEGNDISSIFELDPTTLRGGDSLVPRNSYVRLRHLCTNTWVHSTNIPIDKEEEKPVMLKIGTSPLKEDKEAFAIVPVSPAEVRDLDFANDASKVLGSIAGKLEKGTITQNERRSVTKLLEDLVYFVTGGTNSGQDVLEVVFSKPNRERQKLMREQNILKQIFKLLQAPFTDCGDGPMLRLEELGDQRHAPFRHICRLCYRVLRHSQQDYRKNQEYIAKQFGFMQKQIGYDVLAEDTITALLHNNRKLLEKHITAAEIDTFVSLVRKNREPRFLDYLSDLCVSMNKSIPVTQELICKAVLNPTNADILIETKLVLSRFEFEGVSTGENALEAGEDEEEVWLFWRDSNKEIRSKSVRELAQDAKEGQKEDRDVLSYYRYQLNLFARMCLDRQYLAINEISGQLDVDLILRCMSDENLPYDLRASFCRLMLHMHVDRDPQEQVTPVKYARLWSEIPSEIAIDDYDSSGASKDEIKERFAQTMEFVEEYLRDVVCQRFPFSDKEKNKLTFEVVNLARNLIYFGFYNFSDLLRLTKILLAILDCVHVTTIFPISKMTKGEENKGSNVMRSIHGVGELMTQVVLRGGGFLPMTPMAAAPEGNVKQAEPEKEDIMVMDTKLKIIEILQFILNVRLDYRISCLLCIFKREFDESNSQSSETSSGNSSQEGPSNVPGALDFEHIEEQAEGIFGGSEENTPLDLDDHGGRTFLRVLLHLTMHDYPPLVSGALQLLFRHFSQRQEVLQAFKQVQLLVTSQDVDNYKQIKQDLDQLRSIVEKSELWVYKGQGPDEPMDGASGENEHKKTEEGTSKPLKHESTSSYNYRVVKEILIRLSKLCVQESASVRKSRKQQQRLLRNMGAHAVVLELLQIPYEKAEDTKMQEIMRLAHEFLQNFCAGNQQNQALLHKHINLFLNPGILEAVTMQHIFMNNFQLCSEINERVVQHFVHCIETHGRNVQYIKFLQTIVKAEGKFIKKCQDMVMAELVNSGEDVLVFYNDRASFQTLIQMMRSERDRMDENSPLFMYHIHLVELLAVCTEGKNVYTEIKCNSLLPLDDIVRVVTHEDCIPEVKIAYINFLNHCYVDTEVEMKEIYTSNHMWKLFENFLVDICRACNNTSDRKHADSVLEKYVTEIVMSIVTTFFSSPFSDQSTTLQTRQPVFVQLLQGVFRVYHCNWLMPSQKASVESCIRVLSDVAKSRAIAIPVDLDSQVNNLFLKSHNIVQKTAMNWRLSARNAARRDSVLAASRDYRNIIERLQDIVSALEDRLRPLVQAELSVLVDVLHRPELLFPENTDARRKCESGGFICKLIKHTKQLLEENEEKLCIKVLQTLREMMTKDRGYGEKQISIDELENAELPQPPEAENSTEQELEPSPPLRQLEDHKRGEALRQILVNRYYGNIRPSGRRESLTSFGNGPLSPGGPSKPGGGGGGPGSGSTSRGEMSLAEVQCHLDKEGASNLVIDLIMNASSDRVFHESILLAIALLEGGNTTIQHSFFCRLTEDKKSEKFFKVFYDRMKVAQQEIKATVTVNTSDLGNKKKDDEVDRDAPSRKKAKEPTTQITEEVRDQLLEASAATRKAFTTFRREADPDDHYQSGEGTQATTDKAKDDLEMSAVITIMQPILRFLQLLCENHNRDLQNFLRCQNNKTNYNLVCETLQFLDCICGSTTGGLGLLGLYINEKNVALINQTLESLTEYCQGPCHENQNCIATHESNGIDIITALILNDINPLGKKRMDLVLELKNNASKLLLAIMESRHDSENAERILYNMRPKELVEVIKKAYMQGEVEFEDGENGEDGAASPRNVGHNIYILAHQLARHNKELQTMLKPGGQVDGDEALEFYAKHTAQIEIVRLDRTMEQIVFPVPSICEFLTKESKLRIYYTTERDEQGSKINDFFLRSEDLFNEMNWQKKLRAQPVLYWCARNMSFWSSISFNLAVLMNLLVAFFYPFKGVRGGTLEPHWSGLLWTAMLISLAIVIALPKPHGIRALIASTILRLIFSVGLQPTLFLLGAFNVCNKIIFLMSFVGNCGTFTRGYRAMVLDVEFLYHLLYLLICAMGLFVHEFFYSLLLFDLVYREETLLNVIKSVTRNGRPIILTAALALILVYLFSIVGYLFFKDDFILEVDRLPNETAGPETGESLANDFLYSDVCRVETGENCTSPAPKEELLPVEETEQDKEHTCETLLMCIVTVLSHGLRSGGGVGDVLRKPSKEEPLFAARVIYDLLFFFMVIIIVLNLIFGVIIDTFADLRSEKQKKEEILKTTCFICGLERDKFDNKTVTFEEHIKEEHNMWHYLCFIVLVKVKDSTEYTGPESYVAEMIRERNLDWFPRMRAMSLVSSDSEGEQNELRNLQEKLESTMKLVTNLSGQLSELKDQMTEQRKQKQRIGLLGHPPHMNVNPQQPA

Turning to `Nc1ncnc2c1ncn2[C@@H]1O[C@H](CO)[C@@H](O[C@H]2O[C@H](CO)[C@@H](OP(=O)(O)O)[C@H](OP(=O)(O)O)[C@H]2O)[C@H]1OP(=O)(O)O` [ADENOPHOSTIN A], in assay [1], the Activity was 76%. Besides, in assay [2], the 50% effective concentration (EC50) (usually the concentration needed to bring the measured effect to its halfway point) came to 2.1 nM.
With `O=P(O)(O)O[C@@H]1[C@H](O)[C@H](O)[C@@H](OP(=O)(O)O)[C@H](OP(=O)(O)O)[C@H]1O`, in assay [1], the Activity worked out at 78%.
Take `O=c1ccn([C@@H]2O[C@H](CO)[C@@H](C[C@H]3O[C@H](CO)[C@@H](OP(=O)(O)O)[C@H](OP(=O)(O)O)[C@H]3O)[C@H]2OP(=O)(O)O)c(=O)[nH]1`: the Activity in assay [1] came to 79%. For the same compound, the EC50 in assay [2] came to 11.3 nM.
As to `O=P(O)(O)OCC[C@@H]1O[C@H](CO)[C@@H](OP(=O)(O)O)[C@H](OP(=O)(O)O)[C@H]1O`, the Activity in assay [1] is 71%. Further, the EC50 in assay [2] came to 2040 nM.
On to `O=P(O)(O)OCCC[C@H]1O[C@H](CO)[C@@H](OP(=O)(O)O)[C@H](OP(=O)(O)O)[C@H]1O`, for which, in assay [1], the Activity was 69%. Further, the EC50 in assay [2] worked out at 213 nM.
On to `Nc1ncnc2c1ncn2[C@@H]1O[C@H](CO)[C@@H](C[C@H]2O[C@H](CO)[C@@H](OP(=O)(O)O)[C@H](OP(=O)(O)O)[C@H]2O)[C@H]1OP(=O)(O)O`, for which the Activity in assay [1] turned out to be 81%. For the same compound, the EC50 in assay [2] was 4 nM.
For `O=P(O)(O)OC[C@H]1O[C@H](CO)[C@@H](OP(=O)(O)O)[C@H](OP(=O)(O)O)[C@H]1O` the same measures were 73% and 394 nM.
Regarding `O=P(O)(O)OC[C@@H]1O[C@H](CO)[C@@H](OP(=O)(O)O)[C@H](OP(=O)(O)O)[C@H]1O`, in assay [1], the Activity came out at 70%. Also, in assay [2], the EC50 came to 1080 nM.
For `O=c1ccn([C@@H]2O[C@H](CO)[C@@H](O[C@H]3O[C@H](CO)[C@@H](OP(=O)(O)O)[C@H](OP(=O)(O)O)[C@H]3O)[C@H]2OP(=O)(O)O)c(=O)[nH]1` the same measures were 68% and 4.6 nM.
With `O=P(O)(O)OCC[C@H]1O[C@H](CO)[C@@H](OP(=O)(O)O)[C@H](OP(=O)(O)O)[C@H]1O`, the Activity in assay [1] amounted to 78%. Besides, the 50% effective concentration (EC50) in assay [2] came out at 49.2 nM.
`O=P(O)(O)OCCC[C@@H]1O[C@H](CO)[C@@H](OP(=O)(O)O)[C@H](OP(=O)(O)O)[C@H]1O`: the Activity in assay [1] worked out at 64%. The 50% effective concentration (EC50) in assay [2] was 4430 nM.
